Experimental data: PMC5432742, “Vasorelaxing and antihypertensive activities of synthesized peptides derived from computer-aided simulation of pepsin hydrolysis of yam dioscorin” (Botanical Studies, 2014)
Like-named read-outs stand apart in the source and are kept apart here.

Columns and labels:
[1] = trolox equivalents (TE); ref Hernández-Ledesma et al. 2005; cited from earlier work
[2] = test system: endothelium-intact rat thoracic aortic rings; assay: Relaxation of phenylephrine-induced tension in endothelium-intact rat thoracic aortic rings ex vivo; set-up: species or system Sprague-Dawley rat
Description: (§1) Effects of four peptides and captopril on vascular tension were examined following the previous method (Wang et al. [2001]). Male Sprague–Dawley rats were killed by decapitation, and sections of the thoracic aorta between the aortic arch and the diaphragm were excised carefully and placed in a Petri dish with oxygenated Krebs’ buffer (120 mM NaCl, 4.5 mM KCl, 2.5 mM CaCl2, 1 mM MgSO4, 27 mM NaHCO3, 1 mM KH2PO4, 10 mM glucose, pH 7.4, with 95% O2, 5% CO2) and gently dissected free of fat and connective tissue. The endothelium was removed by gently rubbing the intimal layer of the vessel with a wire. The isolated aortic rings, 3 to 4 mm in length with or without the endothelium, were fixed isometrically in organ chambers under passive tension (1.8 g) for 60 min. Changes in vascular tension were recorded with a polygraph (Gould, model 2400, Valley View, OH, USA) via a force displacement transducer (Grass FT03, Quincy, MA, USA). After equilibration, the near maximal concentration was induced by PE (0.3 μM). When the rings achieved a stable tension, the acetylcholine (3 μM) was added to the bath to assess endothelial integrity. The relaxing effects of KTCGY, KTCGYKTCGY, TCGYTCGY, KRIHF, and captopril on PE (0.3 μM) pre-contracted endothelium-intact or endothelium-denuded aortic rings were examined. When PE treatments reached a steady plateau (considered as 100%), KTCGY, KTCGYKTCGY, TCGYTCGY, KRIHF, and captopril were then tested at cumulative concentrations (0.1 to 100 μM) for their ability to induce aortic ring relaxations.
(§2) Figure 2 Vasorelaxing activity of endothelium-intact and endothelium-denuded SD rat aortic rings in phenylephrine-induced tensions. (A) KTCGY, (B) KTCGYKTCGY, (C) TCGYTCGY, (D) KRIHF, and (E) captopril on Data were expressed as mean ± S.E.

[3] = test system: spontaneously hypertensive rats (SHRs); assay: Antihypertensive effect in SHRs after a single oral administration (tail-cuff blood pressure); type: in vivo, rat; conditions: SHR, N = 6
Description: Experimental procedures were reviewed and approved by the Institutional Animal Care and Use Committee of Taipei Medical University (LAC-95-0076, LAC-97-0117, and LAC-100-0038). Male SHRs (18–28 weeks old; from National Laboratory Animal Center, Taipei, Taiwan) were housed individually in steel cages kept at 24°C under a 12-h light–dark cycle, with free access to water and a standard mouse/rat chow (Prolab® RMH2500, 5P14 Diet, PMI Nutrition International Brentwood, MO, USA). SHRs were randomly divided into 4 groups (N = 6 of each group), KTCGY or KRIHF at concentration of 10 mg/kg and 20 mg/kg was orally administered to the SHRs, and the SBP were measured after 0, 2, 4, 6, 8, and 24 h by using an indirect tail-cuff blood pressure meter (BP98-A, Softron, Tokyo, Japan). Distilled water (0.5 ml) was administered to the SHRs in the blank group. The captopril (10 mg/kg) was used as the positive control.
Figure 3 Antihypertensive activity of (A) KTCGY and (B) KRIHF on systolic blood pressure of spontaneously hypertensive rats (SHRs). KTCGY or KRIHF at concentration of 10 mg/kg and 20 mg/kg was orally administered to the SHRs (6 rats/group), and the SBP were measured after 0, 2, 4, 6, 8, and 24 h by using an indirect tail-cuff blood pressure meter (BP98-A, Softron, Tokyo, Japan). Distilled water (0.5 ml) was administered to the SHRs in the blank group. The captopril (10 mg/kg) was used as the positive control.

[4] = test system: endothelium-denuded rat thoracic aortic rings; assay: Relaxation of phenylephrine-induced tension in endothelium-denuded rat thoracic aortic rings ex vivo; set-up: species or system Sprague-Dawley rat; conditions: PE 0.3 μM; for aortic ring relaxation in endothelium-denuded rings (in words): cumulative 0.1 to 100 μM; for PE-induced endothelium-denuded aortic ring tension (PE plateau = 100%): 100 μM test substance, endothelium-denuded rings
Description: as §1, §2

[5] = test system: ACE; conditions: read-out: ACE inhibition IC50, cited from earlier work
Source text: The untreated high blood pressure is considered to be the central factor in stroke which accounts approximately 33% deaths (Mark and Davis [2000]). There are several classes of pharmacological agents which have been used in the treatment of hypertension, and one class of antihypertensive drugs known as angiotensin I converting enzyme (ACE) inhibitors is associated with a low rate of adverse side effects and is the preferred class of antihypertensive agents when treating patients with concurrent secondary diseases or cardiovascular diseases (Zaman et al. [2002]).

[6] = test system: spontaneously hypertensive rats (SHRs); conditions: ref Fujita et al. 2000; cited from earlier work
Source text: The untreated high blood pressure is considered to be the central factor in stroke which accounts approximately 33% deaths (Mark and Davis [2000]). There are several classes of pharmacological agents which have been used in the treatment of hypertension, and one class of antihypertensive drugs known as angiotensin I converting enzyme (ACE) inhibitors is associated with a low rate of adverse side effects and is the preferred class of antihypertensive agents when treating patients with concurrent secondary diseases or cardiovascular diseases (Zaman et al. [2002]). ACE (peptidyldipeptide hydr ...

[7] = test system: spontaneously hypertensive rats (SHRs); assay: Antihypertensive effect in SHRs after a single oral administration (tail-cuff blood pressure); type: in vivo, rat; conditions: 10 and 20 mg/kg single oral dose, SHR; data not shown
[8] = test system: ACE (rabbit lung); assay: ACE inhibitory assay screening (FAPGG substrate, absorbance at 345 nm); type: biochemical; conditions: peptide 40 μM; 0.5 mM FAPGG in 50 mM Tris-HCl pH 7.5, 0.3 M NaCl; 90 sec, room temperature
Description: The ACE inhibitory activity was measured following the previous reports with some modifications (Hsu et al. [2002]). Each synthesized peptide was dissolved in DMSO to 4 mM as stocks. The 1 ml, 0.5 mM FAPGG (dissolved in 50 mM Tris–HCl buffer, pH 7.5, containing 0.3 M NaCl) was mixed with 12.2 μl peptide solution, and then twenty μl ([…]) of commercial ACE (stock solution, 1U/ ml) was added. The 0.1% DMSO solution was used instead of sample solution for blank experiments (ΔAblank/min). The decreased absorbance at 345 nm (ΔAsample/min) was recorded during 90 sec at room temperature. The ACE inhibition (%) was calculated as followed: [1 - (ΔAsample/min ÷ ΔAblank/min)] × 100.
Figure 1 ACE inhibition by 23 synthesized peptides (40 μM) derived from a computer-aided simulation of pepsin hydrolysis of yam dioscorin. The 0.1% DMSO solution was used instead of sample solution for blank experiments (ΔAblank/min). The decreased absorbance at 345 nm (ΔAsample/min) was recorded during 90 sec at room temperature. The ACE inhibition (%) was calculated as followed: [1 - (ΔAsample/min ÷ ΔAblank/min)] × 100. The synthesized peptides included (1) KTCGNGME, (2) PPCSE, (3) CDDRVIRTPLT, (4) KTCGY, (5) PPCTE, (6) RDNGVIF, (7) KRIHF, (8) RRDY, (9) RSVF, (10) PTNF, (11) GISW, (12) MGSF, (13) VSIL, (14) HSPA, (15) DPF, (16) RY, (17) RF, (18) NW, (19) RL, (20) GVI, (21) GSL, (22) SY, and (23) GPA. […]

[9] = 100 μM test substance, PE 0.3 μM, endothelium-intact rings, mean ± S.E. (Figure 2), SEM

N[C@@H](CS)C(=O)O [Cys]
oxygen radical absorbance capacity (ORAC) activity [1]: 0.1492 μmole TE/μmole

N[C@@H](Cc1c[nH]cn1)C(=O)O [His]
oxygen radical absorbance capacity (ORAC) activity [1]: 0.073 μmole TE/μmole

CSCC[C@H](N)C(=O)O [Met]
oxygen radical absorbance capacity (ORAC) activity [1]: 1.126 μmole TE/μmole

N[C@@H](Cc1ccccc1)C(=O)O [Phe]
oxygen radical absorbance capacity (ORAC) activity [1]: 0.0025 μmole TE/μmole

N[C@@H](Cc1c[nH]c2ccccc12)C(=O)O [Trp]
oxygen radical absorbance capacity (ORAC) activity [1]: 4.649 μmole TE/μmole

N[C@@H](Cc1ccc(O)cc1)C(=O)O [Tyr]
oxygen radical absorbance capacity (ORAC) activity [1]: 1.574 μmole TE/μmole

C[C@H](CS)C(=O)N1CCC[C@H]1C(=O)O [captopril, reference compound]
PE-induced aortic ring tension (PE plateau = 100%) ([2]; 100 µM, SEM): 26.81 ± 5.54%
average reduced SBP ([3]; 10 mg/kg single oral dose, 2-h): 26.85 mmHg
average reduced SBP ([3]; 10 mg/kg single oral dose, 4-h): 24.97 mmHg
average reduced SBP ([3]; 10 mg/kg single oral dose, 6-h): 29.82 mmHg
average reduced SBP ([3]; 10 mg/kg single oral dose, 8-h): 24 mmHg
average reduced SBP ([3]; 10 mg/kg single oral dose, 24-h): 13.80 mmHg
aortic ring relaxation in endothelium-denuded rings (in words) [4]: not endothelium-denuded

ERKIKVYL
IC50 ([5]; ref Fujita et al. 2000): 1.2 µM
reduction of blood pressure in SHRs (in words) [6]: none of them were effective

FFGRCVSP
IC50 ([5]; ref Fujita et al. 2000): 0.4 µM
reduction of blood pressure in SHRs (in words) [6]: none of them were effective

KRIHF [penta-peptide, residues 118–122 of dioscorin A and dioscorin B]
lowering of diastolic blood pressure (in words) [7]: not diastolic blood pressure
ACE inhibition (%) [8]: higher than 50%
PE-induced aortic ring tension (PE plateau = 100%) ([2]; 10 μM test substance, PE 0.3 μM, endothelium-intact rings): 80.26 ± 7.82%
PE-induced aortic ring tension (PE plateau = 100%) [2, 9]: 19.19 ± 7.63%
average reduced SBP ([3]; 10 mg/kg single oral dose, 2-h): 17.30 mmHg
average reduced SBP ([3]; 10 mg/kg single oral dose, 4-h): 21.95 mmHg
average reduced SBP ([3]; 10 mg/kg single oral dose, 6-h): 21.47 mmHg
average reduced SBP ([3]; 10 mg/kg single oral dose, 8-h): 16.65 mmHg
average reduced SBP ([3]; 20 mg/kg single oral dose, 2-h): 18.57 mmHg
average reduced SBP ([3]; 20 mg/kg single oral dose, 4-h): 19.64 mmHg
average reduced SBP ([3]; 20 mg/kg single oral dose, 6-h): 20.87 mmHg
average reduced SBP ([3]; 20 mg/kg single oral dose, 8-h): 8.99 mmHg
aortic ring relaxation in endothelium-denuded rings (in words) [4]: not endothelium-denuded

KTCGY [penta-peptide, residues 52–56 of dioscorin B]
lowering of diastolic blood pressure (in words) [7]: not diastolic blood pressure
ACE inhibition (%) [8]: higher than 50%
PE-induced aortic ring tension (PE plateau = 100%) [2, 9]: 26.97 ± 7.48%
average reduced SBP ([3]; 10 mg/kg single oral dose, 6-h): 24.17 mmHg
average reduced SBP ([3]; 10 mg/kg single oral dose, 8-h): 11.93 mmHg
average reduced SBP ([3]; 20 mg/kg single oral dose, 2-h): 24.20 mmHg
average reduced SBP ([3]; 20 mg/kg single oral dose, 4-h): 26.24 mmHg
average reduced SBP ([3]; 20 mg/kg single oral dose, 6-h): 31.03 mmHg
average reduced SBP ([3]; 20 mg/kg single oral dose, 8-h): 21.40 mmHg
aortic ring relaxation in endothelium-denuded rings (in words) [4]: not endothelium-denuded

KTCGYKTCGY [two-repeated KTCGY]
PE-induced aortic ring tension (PE plateau = 100%) [2, 9]: 46.05 ± 8.02%
PE-induced endothelium-denuded aortic ring tension (PE plateau = 100%) [4]: 66.59 ± 14.84%

RADHPF [ovokinin (2–7), hexa-peptide isolated from chymotryptic ovalbumin hydrolysates]
IC50 ([5]; ref Matoba et al. 1999): > 1000 µM

TCGYTCGY [two-repeated TCGY]
PE-induced aortic ring tension (PE plateau = 100%) [2, 9]: 43.52 ± 6.42%
PE-induced endothelium-denuded aortic ring tension (PE plateau = 100%) [4]: 74.44 ± 15.13%
